Results on two molecules are retold here after publication doi:10.1101/2023.03.15.532718v2, “Bacterial hemophilin homologs and their specific type eleven secretor proteins have conserved roles in heme capture and are diversifying as a family” (biorxiv, 2023).

Like-named read-outs stand apart in the source and are kept apart here.

The target of one assay is T1, HrpC (Xn HrpC) (Xenorhabdus nematophila, UniProt D3VG73).
T1 construct: gene XNC1_0075; residues 23-247, signal peptide omitted, His6 tag cut by TEV leaving N-terminal Gly-His-Met, E. coli Rosetta-2, apo-protein by RP-HPLC
T1 sequence (D3VG73 entry or part of it): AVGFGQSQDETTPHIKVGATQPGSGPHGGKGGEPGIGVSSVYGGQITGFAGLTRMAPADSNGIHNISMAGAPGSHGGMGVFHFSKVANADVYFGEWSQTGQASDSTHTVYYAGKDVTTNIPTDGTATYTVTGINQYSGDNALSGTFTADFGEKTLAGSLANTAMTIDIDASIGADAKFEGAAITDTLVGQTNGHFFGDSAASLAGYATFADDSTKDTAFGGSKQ
The assay is classed as binding. The settings on record: 20 mM Tris-HCl pH 8.0, 21 °C, brackets 95% confidence interval.

Another assay deals with T2, BSA (Bos taurus, UniProt P02769).
T2 construct: gene ALB
T2 sequence (P02769 25-607): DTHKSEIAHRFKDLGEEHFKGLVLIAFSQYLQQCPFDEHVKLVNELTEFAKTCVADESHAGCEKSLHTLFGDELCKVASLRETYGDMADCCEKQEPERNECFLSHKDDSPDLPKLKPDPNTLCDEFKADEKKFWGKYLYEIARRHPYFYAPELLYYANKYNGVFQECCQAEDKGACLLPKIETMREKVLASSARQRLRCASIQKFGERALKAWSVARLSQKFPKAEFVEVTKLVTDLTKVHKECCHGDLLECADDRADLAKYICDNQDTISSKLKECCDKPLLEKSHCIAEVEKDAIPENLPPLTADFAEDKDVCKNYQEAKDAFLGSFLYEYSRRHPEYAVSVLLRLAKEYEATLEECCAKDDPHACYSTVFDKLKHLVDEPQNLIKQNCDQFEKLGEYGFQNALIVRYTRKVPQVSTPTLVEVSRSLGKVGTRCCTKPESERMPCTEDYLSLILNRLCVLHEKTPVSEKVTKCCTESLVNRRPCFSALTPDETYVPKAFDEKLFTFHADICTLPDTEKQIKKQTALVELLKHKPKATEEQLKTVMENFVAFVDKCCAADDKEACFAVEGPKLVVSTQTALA
As to the kind of experiment: UV-visible absorption titration, […] fit. The assay is classed as binding. The settings on record: 20 mM Tris-HCl pH 8.0, 21 °C, brackets 95% confidence interval.

In another assay the target is T3, Hpl (hemophilin, Hh Hpl) (Haemophilus haemolyticus, UniProt A0A0M3G7Q5).
T3 construct: gene AAX18_03525; signal peptide omitted, expressed in E. coli cytoplasm as previously described, apo-protein by acid acetone; strain BW1 printed for the secretion clone only
T3 sequence (A0A0M3G7Q5 entry or part of it): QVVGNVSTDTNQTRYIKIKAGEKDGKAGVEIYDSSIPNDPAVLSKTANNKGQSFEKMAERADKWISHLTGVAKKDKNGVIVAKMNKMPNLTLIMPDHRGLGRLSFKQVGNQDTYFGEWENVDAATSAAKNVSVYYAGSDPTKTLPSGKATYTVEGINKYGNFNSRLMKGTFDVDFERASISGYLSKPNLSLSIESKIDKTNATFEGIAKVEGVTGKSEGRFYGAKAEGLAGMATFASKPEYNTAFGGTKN
Nature of the assay: biochemical. The assay is classed as binding.

For another assay, the target named is T4, Ab HphA (Acinetobacter baumannii, UniProt A0A059ZRB8).
T4 construct: signal peptide omitted, expressed in E. coli cytoplasm, apo-protein
T4 sequence (A0A059ZRB8 whole entry): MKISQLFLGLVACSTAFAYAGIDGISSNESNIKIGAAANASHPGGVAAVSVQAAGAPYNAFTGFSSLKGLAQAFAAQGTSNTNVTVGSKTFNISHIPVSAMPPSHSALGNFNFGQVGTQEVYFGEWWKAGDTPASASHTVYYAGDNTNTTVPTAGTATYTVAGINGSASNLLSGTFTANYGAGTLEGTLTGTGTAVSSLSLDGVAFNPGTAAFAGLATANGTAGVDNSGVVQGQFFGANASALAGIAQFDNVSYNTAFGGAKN
Nature of the assay: biochemical. Also on record: UV-visible absorbance titration of porphyrin with protein, 1:1 fit with ligand depletion, 21 C pH 8.0. How it is done: Hemin binding measurements in absorbance mode were made by successive additions of apo-protein (∼0.4 mM stock) into porphyrin solution (1.5 µM) in 20 mM Tris-HCl, pH 8 at 21°C. All binding experiments were performed at 21°C. Data were fitted to a 1:1 binding model accounting for ligand depletion, where Fobs is fluorescence signal, F0 is the starting [drawing 1] fluorescence, Fsat is a scaling factor for fluorescence at saturation, L and M are the ligand and macromolecule concentrations, respectively, and Kd is the equilibrium dissociation constant. Data were fitted using GNUPLOT version 4.6. […] Here, SSbest is the sum-of-squares for the fit with all parameters floated; Dfn and Dfd are the degrees of freedom in the numerator and denominator, respectively, for calculation of F. The Kd value was then fixed at values above or below the best-fit Kd until fits exceeded the threshold sum-of-squares. To determine a lower limit of Kd that we could expect to fit from absorbance measurements we simulated data for different Kd values with Gaussian noise added to give fits with SSbest that matched our experimental data. […] Titration of hemophilin homologues with hemin. […] A) Spectra recorded after addition of H. haemolyticus Hpl to a final concentration in the range 0.3–4.5 µM. B) Spectra recorded after addition of A. baumannii HphA to a final concentration in the range 0.4–3.8 µM. […]

Another assay addresses T5, CrpC (Xc CrpC) (Xenorhabdus cabanillasii, UniProt A0A3D9UFK6).
T5 construct: gene BDD26_3141; residues 23-238, signal peptide omitted, His6 tag cut by TEV leaving N-terminal Gly-His-Met, E. coli Rosetta-2, apo as purified; HGB2490 is the authors' collection number
The assay is classed as binding. The settings on record: 20 mM Tris-HCl pH 8.0, 21 °C, brackets 95% confidence interval.

T5 sequence (A0A3D9UFK6 entry or part of it): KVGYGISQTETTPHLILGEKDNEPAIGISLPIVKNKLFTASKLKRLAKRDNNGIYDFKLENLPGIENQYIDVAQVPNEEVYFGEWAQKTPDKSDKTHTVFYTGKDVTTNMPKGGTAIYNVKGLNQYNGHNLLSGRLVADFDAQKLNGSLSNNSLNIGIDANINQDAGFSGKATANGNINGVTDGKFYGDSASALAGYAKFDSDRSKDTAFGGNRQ

Consider `C=CC1=C(C)c2cc3[nH]c(cc4nc(cc5[nH]c(cc1n2)c(C)c5CCC(=O)O)C(CCC(=O)O)=C4C)c(C)c3C=C` [PPIX], for which the Kd was 20 nM at HrpC (Xn HrpC); 11 (6–14) × 10^3 nM on BSA; 70 nM on Hpl (hemophilin, Hh Hpl); at most 15 nM at Ab HphA; 7 (3–11) × 10^3 nM at CrpC (Xc CrpC).
For `C=CC1=C(C)C2=Cc3c(C=C)c(C)c4[n]3[Fe]([Cl])[n]3c(c(C)c(CCC(=O)O)c3=CC3=NC(=C4)C(C)=C3CCC(=O)O)=CC1=N2` [hemin], the Kd on HrpC (Xn HrpC) (b21 prints both nM and µM for this value, table nM) is 20 nM; at BSA (apparent Kd), 2 (1–5) × 10^3 nM; at CrpC (Xc CrpC) (apparent Kd) it was 5 (1–9) × 10^3 nM.
